From ChEMBL document CHEMBL1141817, “A novel extracellular diterpenoid with antibacterial activity from the cyanobacterium Nostoc commune” (1999)
Converted amounts (≈) assume the structure as drawn.

Experiments:
Format in all cases: functional
[1] = test system: Bacillus cereus; test: Antibacterial activity against Bacillus cereus ATCC 10702
[2] = test system: Escherichia coli; test: Antibacterial activity against Escherichia coli ATCC 25922
[3] = test system: Staphylococcus epidermidis; test: Antibacterial activity against Staphylococcus epidermidis ATCC 12228

Compound | MIC [1] [µg/mL] | MIC [2] [µg/mL] | MIC [3] [µg/mL]
C[C@@H]1CC=C2[C@@H](CC[C@H]3C(C)(C)[C@H](O)CC[C@@]23C)[C@]1(C)Cc1cc(C(=O)O)ccc1O [NOSCOMIN] | 32 (≈ 75 µM) | 128 (≈ 300 µM) | 8 (≈ 18.8 µM)
O=C(N[C@H](CO)[C@H](O)c1ccc([N+](=O)[O-])cc1)C(Cl)Cl [CHLORAMPHENICOL] | 8 (≈ 24.8 µM) | 64 (≈ 198 µM) | 4 (≈ 12.4 µM)
